For this assay, the system named is lettuce (Lactuca sativa) 'Montello'. Briefly: Alleviation of thermodormancy: lettuce germination at 35 C. The settings on record: 35 C in the dark, after 10 days, priming 20-24 hours. The class given is in vivo. As to the method:
Alleviation of thermodormancy by priming was studied in lettuce (Lactuca sativa) ‘Montello’. SMP of lettuce was performed with Agro-Lig (Table 1). Conventional priming treatments included: −1.5 MPa PEG 8000 (Bradford, 1986, supra) and 1.0% K3PO4 (Cantliffe, et al., 1984, Plant Physiol. 75:290-294). After priming, seeds were rinsed and allowed to dry. Seeds were placed to germinate on moistened blotters in closed containers. The containers were maintained at a constant 35 C in the dark. There were four replications of 50 seeds each and the percent germination was determined after 10 days.

SMILES strings stand for the structures.

`O=P([O-])([O-])[O-].[K+].[K+].[K+]` [1.0% K3PO4, K3PO4] registered a Percent germination of 71 a %.

The values above are taken from patent US6646181B1, “Solid matrix control of seed conditioning using selected cell cycle stages” (Kamterter II, L.L.C., priority 1987, dated 2003).
